Calls of active or inactive are those of the source.
Key:
[1] = molecular target: T1, Short transient receptor potential channel 4 (Mus musculus, UniProt Q9QUQ5); experiment: block of DAMGO-driven TRPC4 calcium entry – cell-based, HEK293 TRPC4/mu-opioid, Fluo-4 calcium, dose response (AID 434942); format: functional;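 further: potency of inhibitors blocking the TRPC4 calcium response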
T1 sequence (Q9QUQ5 whole entry): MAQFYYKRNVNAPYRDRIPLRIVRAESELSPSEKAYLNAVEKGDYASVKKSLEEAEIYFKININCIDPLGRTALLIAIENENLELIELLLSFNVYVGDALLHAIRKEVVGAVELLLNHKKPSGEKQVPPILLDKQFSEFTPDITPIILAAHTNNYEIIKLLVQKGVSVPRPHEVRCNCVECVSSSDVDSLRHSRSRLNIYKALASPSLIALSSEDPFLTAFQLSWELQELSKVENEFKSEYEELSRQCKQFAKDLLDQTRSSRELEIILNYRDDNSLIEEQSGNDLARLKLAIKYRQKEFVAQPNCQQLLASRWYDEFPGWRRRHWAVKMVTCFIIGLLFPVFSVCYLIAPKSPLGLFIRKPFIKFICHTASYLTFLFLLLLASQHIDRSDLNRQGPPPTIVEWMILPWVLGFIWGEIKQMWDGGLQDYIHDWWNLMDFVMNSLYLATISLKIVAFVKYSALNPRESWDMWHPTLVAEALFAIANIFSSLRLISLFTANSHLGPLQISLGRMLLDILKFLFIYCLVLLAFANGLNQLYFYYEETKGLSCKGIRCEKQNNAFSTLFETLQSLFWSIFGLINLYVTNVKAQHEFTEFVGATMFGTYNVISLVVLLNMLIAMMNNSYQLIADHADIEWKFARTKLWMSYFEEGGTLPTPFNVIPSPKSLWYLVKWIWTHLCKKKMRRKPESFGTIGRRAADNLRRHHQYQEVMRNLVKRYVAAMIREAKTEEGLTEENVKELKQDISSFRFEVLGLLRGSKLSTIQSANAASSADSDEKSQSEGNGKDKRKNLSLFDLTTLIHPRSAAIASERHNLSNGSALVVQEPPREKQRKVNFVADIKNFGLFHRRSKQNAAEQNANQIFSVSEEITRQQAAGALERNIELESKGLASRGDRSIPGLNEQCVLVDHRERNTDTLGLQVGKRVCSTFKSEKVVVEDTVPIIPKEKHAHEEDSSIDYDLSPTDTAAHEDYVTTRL

[2] = blockers of CRF-binding protein–CRF-R2 complex – cell-based, uHTS hits, 384-well, dose response (AID 651639); format: functional, Homo sapiens; details: read-out: IC50_Mean
[3] = molecular target: T2, Corticotropin-releasing factor receptor 2/Corticotropin-releasing factor-binding protein (Homo sapiens, UniProt P24387+Q13324); experiment: Dose Response confirmation of uHTS hits for small molecule antagonists of the CRF-binding protein and CRF-R2 receptor complex.; format: functional; details: read-out: IC50_Mean
T2 sequence (Q13324 whole entry): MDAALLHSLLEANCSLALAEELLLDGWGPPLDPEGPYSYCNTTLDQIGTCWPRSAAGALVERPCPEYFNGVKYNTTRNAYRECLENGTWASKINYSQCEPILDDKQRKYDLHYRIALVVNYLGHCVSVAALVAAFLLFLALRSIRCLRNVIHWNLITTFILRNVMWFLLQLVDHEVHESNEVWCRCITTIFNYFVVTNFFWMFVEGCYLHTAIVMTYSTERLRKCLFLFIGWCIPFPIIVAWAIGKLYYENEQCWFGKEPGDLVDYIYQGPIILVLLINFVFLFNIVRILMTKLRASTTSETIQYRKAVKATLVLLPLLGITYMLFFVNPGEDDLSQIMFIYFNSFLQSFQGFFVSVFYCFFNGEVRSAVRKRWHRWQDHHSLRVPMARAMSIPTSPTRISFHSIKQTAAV
T2 sequence (P24387 whole entry): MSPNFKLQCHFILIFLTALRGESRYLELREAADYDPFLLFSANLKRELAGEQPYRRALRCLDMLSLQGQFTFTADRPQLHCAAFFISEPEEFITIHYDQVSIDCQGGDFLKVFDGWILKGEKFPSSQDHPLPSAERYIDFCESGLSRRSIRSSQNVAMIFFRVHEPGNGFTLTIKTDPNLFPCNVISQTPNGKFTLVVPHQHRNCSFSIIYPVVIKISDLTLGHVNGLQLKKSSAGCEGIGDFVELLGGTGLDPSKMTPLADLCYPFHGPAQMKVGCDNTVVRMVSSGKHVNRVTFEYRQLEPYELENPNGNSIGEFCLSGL

[4] = molecular target: T2, Corticotropin-releasing factor receptor 2/Corticotropin-releasing factor-binding protein; experiment: activators of CRF receptor 2 with binding protein – uHTS hits, confirmation (AID 602473); format: functional; details: read-out: EC50_Mean
[5] = DRD fibroblast viability loss – cell-based, non-viral oncogenic, luminescence, dose response (AID 1934); format: functional; details: Homo sapiens
[6] = HEK-293T viability loss after treatment – luminescence, T-cell screen hits, cytotoxicity control for TCR NF-kB inhibitor project, dose response (AID 489026); format: functional, cell-based;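 further: cells exposed to compound about 14 hours before the viability readout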
BJ [7] = experiment: growth inhibition of engineered Ras-driven BJ cells – cell-based, alamar blue fluorescence, cherrypicked samples, dose response (AID 2631); format: functional; details: Homo sapiens;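 further: confirmatory dose-response assay in RAS-dependent BJ fibroblasts engineered with TERT, LT and ST, with cytotoxicity read by fluorescence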
BJ [8] = experiment: cells; format: functional, cell-based; details: Homo sapiens
BJ [9] = experiment: BJ-TERT fibroblast viability loss – cell-based, RAS-independent, luminescence, dose response (AID 1933); format: functional; details: Homo sapiens
BJ [10] = experiment: BJ-TERT-LT-ST fibroblast viability loss – cell-based, RAS-independent, luminescence, dose response (AID 1935); format: functional; details: Homo sapiens;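 further: BJ fibroblasts immortalized with TERT plus LT and ST oncogenes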
HEK293 = experiment: EBV LMP1 TES2 canonical NF-kB signalling blockers – cell-based, HEK293, luciferase, cherry-pick, dose response (AID 588343); format: functional; details: Homo sapiens
[11] = molecular target: T3, Probable nicotinate-nucleotide adenylyltransferase (Staphylococcus aureus (strain N315), UniProt P65502); format: functional, Staphylococcus aureus subsp. aureus N315; details: read-out: IC50_Mean;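 on IC50 Mean: confirmatory dose-response retesting of NadD inhibitor hits first found in an ultra-high-throughput screen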
T3 sequence (P65502 whole entry): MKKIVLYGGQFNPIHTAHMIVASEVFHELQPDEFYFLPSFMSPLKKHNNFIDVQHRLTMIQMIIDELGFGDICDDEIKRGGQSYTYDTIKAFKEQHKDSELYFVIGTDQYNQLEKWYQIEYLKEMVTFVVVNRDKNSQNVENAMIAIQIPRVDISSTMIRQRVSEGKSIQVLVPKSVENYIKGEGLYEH

[12] = molecular target: T3, Probable nicotinate-nucleotide adenylyltransferase; format: functional, Staphylococcus aureus subsp. aureus N315
Leucine aminopeptidase = molecular target: T4, Leucine aminopeptidase (Plasmodium falciparum 3D7, UniProt Q8IL11); experiment: P. falciparum M17LAP inhibitors, primary screen, biochemical, fluorogenic H-Leu-NHMec substrate, 1536-well (AID 1619); format: functional
T4 sequence (Q8IL11 whole entry): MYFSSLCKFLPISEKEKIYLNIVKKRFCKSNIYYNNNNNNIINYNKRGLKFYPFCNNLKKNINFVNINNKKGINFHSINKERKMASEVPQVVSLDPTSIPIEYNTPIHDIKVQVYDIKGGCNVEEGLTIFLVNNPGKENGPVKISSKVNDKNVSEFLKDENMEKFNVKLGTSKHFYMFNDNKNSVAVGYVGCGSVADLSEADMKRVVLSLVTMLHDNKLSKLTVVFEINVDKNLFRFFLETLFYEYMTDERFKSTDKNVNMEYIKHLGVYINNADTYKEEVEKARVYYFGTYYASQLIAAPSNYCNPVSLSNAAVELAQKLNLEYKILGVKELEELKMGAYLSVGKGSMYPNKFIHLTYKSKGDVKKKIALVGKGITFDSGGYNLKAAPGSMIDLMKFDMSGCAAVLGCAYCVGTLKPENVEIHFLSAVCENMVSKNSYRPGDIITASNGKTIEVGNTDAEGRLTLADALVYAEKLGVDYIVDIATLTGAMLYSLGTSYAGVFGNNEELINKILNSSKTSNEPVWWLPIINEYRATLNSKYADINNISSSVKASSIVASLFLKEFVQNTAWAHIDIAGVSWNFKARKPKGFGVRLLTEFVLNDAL

Compound | IC50 [2] | IC50 [3] | EC50 [4] | EC50 [5] | EC50 (BJ [7]) | EC50 (BJ [8]) | EC50 (BJ [9]) | EC50 (BJ [10]) | further results
Cc1cc([N+](=O)[O-])ccc1NCc1ccco1 | 7.36 µM (active) | 23.1 µM (active) | > 53 µM (inactive) |  |  |  |  |  | EC50 [1]: 5.96 µM (active)
Cc1ccc2[nH]c3c(c2c1)CCCC3NC(=O)CCl (configuration not stated) |  |  |  | 7.41 µM (inconclusive) | 0.565 µM (active) | 8.7 µM (active) | 13.8 µM (active) | > 150 µM (inconclusive) | IC50 [6]: > 80 µM (inactive); AC50 (HEK293): 2.36 µM (active)
N#C/C(=C/c1cn(-c2ccccc2)nc1-c1cccc(S(=O)(=O)N2CCCC2)c1)C(=O)NCc1ccco1 |  |  |  |  |  |  |  |  | IC50 [11]: 50.1 µM (active); IC50 [12]: 14.4 µM (active)
COc1ccc(NC(=O)CN(C)S(=O)(=O)c2ccc3nc(O)oc3c2)cc1 |  |  |  | > 150 µM (not active) | > 133 µM (inactive) | > 150 µM (not active) | > 150 µM (not active) | 47.8 µM (active) | 
O=C(COc1ccc2ccccc2c1)Nc1cccc(C(=O)Nc2ccccc2C(=O)O)c1 | 7.44 µM (active) | 2.55 µM (active) | > 53 µM (inactive) |  |  |  |  |  | IC50 (Leucine aminopeptidase): 8.71 µM (active)
